Test results published in patent US6506765B2 (TAP Pharmaceutical Products, Inc., priority 2000, dated 2003).
pKi: −log10 of the molar value. Where two headings read alike, the source gives them in different places.

What was measured:
[1] = target: Serotonin 5-HT1B (Homo sapiens, UniProt P28222); experiment: radioligand binding assay, Serotonin 5-HT1B
[2] = target: muscarinic M2 (Homo sapiens, UniProt P08172); experiment: radioligand binding assay, muscarinic M2
Procedure: (§1) Routine radioligand binding assays were performed using reference standards according to established methodology. IC50 values were determined by a non-linear least square regression analysis.

[3] = target: calcitonin gene related peptide (CGRP) (Homo sapiens, UniProt O60894+Q16602); experiment: radioligand binding assay, CGRP
[4] = target: Dopamine D2S (Homo sapiens, UniProt P14416); experiment: radioligand binding assay, Dopamine D2S
Procedure: as §1

[5] = tested on: dopamine D4.2; experiment: radioligand binding assay, dopamine D4.2
Procedure: as §1

[6] = target: adrenergic β1 (Homo sapiens, UniProt P08588); experiment: radioligand binding assay, adrenergic β1
Procedure: as §1

[7] = target: Serotonin 5-HT1A (Homo sapiens, UniProt P08908); experiment: radioligand binding assay, Serotonin 5-HT1A
Procedure: as §1

[8] = target: neuropeptide Y NPY1 (Homo sapiens, UniProt P25929); experiment: radioligand binding assay, neuropeptide Y NPY1
Procedure: as §1

[9] = target: muscarinic M4 (Homo sapiens, UniProt P08173); experiment: radioligand binding assay, muscarinic M4
[10] = target: Serotonin 5-HT7 (Homo sapiens, UniProt P34969); experiment: radioligand binding assay, Serotonin 5-HT7
Procedure: as §1

[11] = target: Serotonin 5-HT2; experiment: radioligand binding assay, Serotonin 5-HT2
[12] = tested on: dopamine D4.7; experiment: radioligand binding assay, dopamine D4.7
Procedure: as §1

[13] = target: Adrenergic α2B (Homo sapiens, UniProt P18089); experiment: radioligand binding assay, Adrenergic α2B
Procedure: as §1

[14] = target: neuropeptide Y NPY2 (Homo sapiens, UniProt P49146); experiment: radioligand binding assay, neuropeptide Y NPY2
Procedure: as §1

[15] = target: dopamine D4.4 (Homo sapiens, UniProt P21917); experiment: radioligand binding assay, dopamine D4.4
Procedure: as §1

[16] = tested on: gamma aminobutyric acid GABAA; experiment: radioligand binding assay, GABAA
[17] = target: Adrenergic α2A (Homo sapiens, UniProt P08913); experiment: radioligand binding assay, Adrenergic α2A
Procedure: as §1

[18] = target: tachykinin NK1 (Homo sapiens, UniProt P25103); experiment: radioligand binding assay, tachykinin NK1
[19] = target: tachykinin NK3 (Homo sapiens, UniProt P29371); experiment: radioligand binding assay, tachykinin NK3
[20] = target: vasoactive intestinal peptide (VIP1) (Homo sapiens, UniProt P32241); experiment: radioligand binding assay, VIP1
[21] = target: tachykinin NK2 (Homo sapiens, UniProt P21452); experiment: radioligand binding assay, tachykinin NK2
[22] = target: serotonin 5-HT4 (Homo sapiens, UniProt Q13639); experiment: radioligand binding assay, serotonin 5-HT4
[23] = target: Dopamine D3 (Homo sapiens, UniProt P35462); experiment: radioligand binding assay, Dopamine D3
Procedure: as §1

[24] = target: muscarinic M1 (Homo sapiens, UniProt P11229); experiment: radioligand binding assay, muscarinic M1
Procedure: as §1

[25] = target: muscarinic M3 (Homo sapiens, UniProt P20309); experiment: radioligand binding assay, muscarinic M3
Procedure: as §1

[26] = tested on: nitric oxide synthetase; experiment: activity of nitric oxide synthetase; format: biochemical
[27] = target: Adrenergic α1A (Homo sapiens, UniProt P35348); experiment: radioligand binding assay, Adrenergic α1A
Procedure: as §1

[28] = target: Opiate μ (Homo sapiens, UniProt P35372); experiment: radioligand binding assay, Opiate μ
Procedure: as §1

[29] = target: Serotonin 5-HT6 (Homo sapiens, UniProt P50406); experiment: radioligand binding assay, Serotonin 5-HT6
[30] = target: adrenergic β3 (Homo sapiens, UniProt P13945); experiment: radioligand binding assay, adrenergic β3
Procedure: as §1

[31] = target: muscarinic M5 (Homo sapiens, UniProt P08912); experiment: radioligand binding assay, muscarinic M5
[32] = tested on: nicotinic; experiment: radioligand binding assay, nicotinic
[33] = target: Serotonin 5-HT2A (Homo sapiens, UniProt P28223); experiment: radioligand binding assay, Serotonin 5-HT2A
Procedure: as §1

[34] = target: adrenergic β2 (Homo sapiens, UniProt P07550); experiment: radioligand binding assay, adrenergic β2
Procedure: as §1

[35] = target: gamma aminobutyric acid GABAB (Homo sapiens, UniProt Q9UBS5); experiment: radioligand binding assay, GABAB
[36] = target: opiate δ (Homo sapiens, UniProt P41143); experiment: radioligand binding assay, opiate δ
Procedure: as §1

[37] = target: Adrenergic α1B (Homo sapiens, UniProt P35368); experiment: radioligand binding assay, Adrenergic α1B
[38] = target: Adrenergic α2C (Homo sapiens, UniProt P18825); experiment: biochemical
Procedure: as §1

[39] = target: opiate κ (Homo sapiens, UniProt P41145); experiment: radioligand binding assay, opiate κ
Procedure: as §1

[40] = target: Serotonin 5-HT1D (Homo sapiens, UniProt P28221); experiment: radioligand binding assay, Serotonin 5-HT1D
Procedure: as §1

Chain of muscarinic M4 (P08173 whole entry): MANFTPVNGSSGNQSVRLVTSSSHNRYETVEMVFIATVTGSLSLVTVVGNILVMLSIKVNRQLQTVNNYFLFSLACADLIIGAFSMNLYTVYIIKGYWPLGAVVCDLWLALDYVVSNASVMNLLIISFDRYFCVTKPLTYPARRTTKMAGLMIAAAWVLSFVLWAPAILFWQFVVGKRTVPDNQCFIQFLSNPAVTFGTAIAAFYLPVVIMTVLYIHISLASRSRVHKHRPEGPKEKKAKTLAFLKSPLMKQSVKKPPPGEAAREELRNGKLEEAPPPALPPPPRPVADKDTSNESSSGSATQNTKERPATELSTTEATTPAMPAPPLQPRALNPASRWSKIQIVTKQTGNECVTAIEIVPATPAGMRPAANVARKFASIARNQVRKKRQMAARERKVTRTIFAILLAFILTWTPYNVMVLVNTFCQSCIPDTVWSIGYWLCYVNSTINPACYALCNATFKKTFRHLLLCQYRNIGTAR
Chain of adrenergic β2 (P07550 whole entry): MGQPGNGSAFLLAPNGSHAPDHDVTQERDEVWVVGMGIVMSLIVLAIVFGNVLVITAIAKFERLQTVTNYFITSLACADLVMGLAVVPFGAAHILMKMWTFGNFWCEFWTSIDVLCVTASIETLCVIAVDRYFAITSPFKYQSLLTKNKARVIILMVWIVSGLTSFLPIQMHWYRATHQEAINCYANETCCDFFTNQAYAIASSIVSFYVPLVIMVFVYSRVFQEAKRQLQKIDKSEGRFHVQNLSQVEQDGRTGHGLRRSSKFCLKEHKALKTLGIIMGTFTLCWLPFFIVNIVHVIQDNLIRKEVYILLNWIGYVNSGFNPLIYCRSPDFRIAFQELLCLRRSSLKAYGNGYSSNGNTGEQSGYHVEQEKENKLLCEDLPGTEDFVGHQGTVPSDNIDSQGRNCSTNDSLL
Chain of Serotonin 5-HT7 (P34969 whole entry): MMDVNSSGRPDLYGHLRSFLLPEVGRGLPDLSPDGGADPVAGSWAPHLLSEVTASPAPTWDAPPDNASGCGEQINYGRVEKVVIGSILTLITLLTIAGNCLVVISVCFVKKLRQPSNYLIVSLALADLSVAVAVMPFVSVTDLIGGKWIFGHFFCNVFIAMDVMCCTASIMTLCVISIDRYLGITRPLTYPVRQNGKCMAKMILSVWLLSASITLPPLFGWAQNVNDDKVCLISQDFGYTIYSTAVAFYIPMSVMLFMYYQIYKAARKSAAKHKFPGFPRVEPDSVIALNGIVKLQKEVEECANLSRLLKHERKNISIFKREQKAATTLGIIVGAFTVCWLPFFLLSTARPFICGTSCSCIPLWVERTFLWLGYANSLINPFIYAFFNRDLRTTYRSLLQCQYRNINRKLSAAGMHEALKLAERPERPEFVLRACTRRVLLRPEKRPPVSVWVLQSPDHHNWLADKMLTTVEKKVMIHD
Chain of muscarinic M5 (P08912 whole entry): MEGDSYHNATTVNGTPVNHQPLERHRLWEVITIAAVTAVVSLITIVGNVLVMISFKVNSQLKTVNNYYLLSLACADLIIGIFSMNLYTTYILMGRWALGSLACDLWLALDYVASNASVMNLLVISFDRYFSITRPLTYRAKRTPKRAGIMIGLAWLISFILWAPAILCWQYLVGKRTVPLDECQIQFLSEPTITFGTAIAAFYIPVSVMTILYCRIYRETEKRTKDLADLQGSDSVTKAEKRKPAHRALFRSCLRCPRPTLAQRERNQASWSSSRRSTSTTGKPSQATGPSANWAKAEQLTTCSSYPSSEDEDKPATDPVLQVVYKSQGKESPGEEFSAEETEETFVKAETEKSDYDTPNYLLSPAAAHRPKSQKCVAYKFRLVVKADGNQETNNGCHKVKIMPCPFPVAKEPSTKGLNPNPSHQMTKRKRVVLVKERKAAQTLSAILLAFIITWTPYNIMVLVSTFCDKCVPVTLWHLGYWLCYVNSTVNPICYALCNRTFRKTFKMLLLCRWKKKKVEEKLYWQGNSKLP
Chain of tachykinin NK3 (P29371 whole entry): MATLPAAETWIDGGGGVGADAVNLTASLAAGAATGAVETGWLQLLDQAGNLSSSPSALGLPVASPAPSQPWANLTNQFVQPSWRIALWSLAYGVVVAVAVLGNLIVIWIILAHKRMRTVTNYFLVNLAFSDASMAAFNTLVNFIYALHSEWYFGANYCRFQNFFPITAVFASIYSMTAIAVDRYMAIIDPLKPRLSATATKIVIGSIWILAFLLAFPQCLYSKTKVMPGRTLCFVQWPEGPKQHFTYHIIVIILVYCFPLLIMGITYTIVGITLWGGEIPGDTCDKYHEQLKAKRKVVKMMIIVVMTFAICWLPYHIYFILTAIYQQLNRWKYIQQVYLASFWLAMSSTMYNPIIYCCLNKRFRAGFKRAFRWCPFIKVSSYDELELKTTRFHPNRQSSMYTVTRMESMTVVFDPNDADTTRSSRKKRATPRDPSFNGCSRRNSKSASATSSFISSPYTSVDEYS
Chain of neuropeptide Y NPY2 (P49146 whole entry): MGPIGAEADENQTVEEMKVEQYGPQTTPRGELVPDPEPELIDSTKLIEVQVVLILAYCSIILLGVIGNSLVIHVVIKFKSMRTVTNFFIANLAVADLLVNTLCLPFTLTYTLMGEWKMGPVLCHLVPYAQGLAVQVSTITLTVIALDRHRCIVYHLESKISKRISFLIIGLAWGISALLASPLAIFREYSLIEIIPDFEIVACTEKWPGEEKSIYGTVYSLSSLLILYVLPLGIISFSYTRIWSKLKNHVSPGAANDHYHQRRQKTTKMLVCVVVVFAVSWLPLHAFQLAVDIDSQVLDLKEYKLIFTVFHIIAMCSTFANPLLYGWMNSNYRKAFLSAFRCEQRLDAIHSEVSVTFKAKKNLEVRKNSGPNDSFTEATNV
Chain of Serotonin 5-HT6 (P50406 whole entry): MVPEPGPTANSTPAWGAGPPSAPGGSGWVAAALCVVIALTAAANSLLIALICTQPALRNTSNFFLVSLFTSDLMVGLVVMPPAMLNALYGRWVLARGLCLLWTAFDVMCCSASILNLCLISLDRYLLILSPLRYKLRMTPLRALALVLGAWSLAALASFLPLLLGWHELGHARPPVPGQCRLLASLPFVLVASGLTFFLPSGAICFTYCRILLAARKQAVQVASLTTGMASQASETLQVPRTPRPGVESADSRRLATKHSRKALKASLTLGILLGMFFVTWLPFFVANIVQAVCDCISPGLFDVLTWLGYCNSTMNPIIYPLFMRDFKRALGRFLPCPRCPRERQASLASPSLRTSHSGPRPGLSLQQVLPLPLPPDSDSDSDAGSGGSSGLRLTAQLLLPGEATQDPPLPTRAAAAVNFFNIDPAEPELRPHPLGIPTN
Chain of serotonin 5-HT4 (Q13639 whole entry): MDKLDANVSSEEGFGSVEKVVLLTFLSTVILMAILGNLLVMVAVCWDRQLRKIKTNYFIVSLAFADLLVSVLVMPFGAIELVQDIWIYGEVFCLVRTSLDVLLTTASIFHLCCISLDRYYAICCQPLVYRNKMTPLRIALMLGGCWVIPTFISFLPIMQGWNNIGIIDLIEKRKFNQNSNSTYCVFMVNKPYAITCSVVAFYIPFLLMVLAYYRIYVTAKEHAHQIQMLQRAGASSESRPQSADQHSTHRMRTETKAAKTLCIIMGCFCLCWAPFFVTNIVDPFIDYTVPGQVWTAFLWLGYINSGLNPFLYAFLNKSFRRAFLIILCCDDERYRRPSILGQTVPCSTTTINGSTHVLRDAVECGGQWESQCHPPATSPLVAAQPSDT
Chain of muscarinic M2 (P08172 whole entry): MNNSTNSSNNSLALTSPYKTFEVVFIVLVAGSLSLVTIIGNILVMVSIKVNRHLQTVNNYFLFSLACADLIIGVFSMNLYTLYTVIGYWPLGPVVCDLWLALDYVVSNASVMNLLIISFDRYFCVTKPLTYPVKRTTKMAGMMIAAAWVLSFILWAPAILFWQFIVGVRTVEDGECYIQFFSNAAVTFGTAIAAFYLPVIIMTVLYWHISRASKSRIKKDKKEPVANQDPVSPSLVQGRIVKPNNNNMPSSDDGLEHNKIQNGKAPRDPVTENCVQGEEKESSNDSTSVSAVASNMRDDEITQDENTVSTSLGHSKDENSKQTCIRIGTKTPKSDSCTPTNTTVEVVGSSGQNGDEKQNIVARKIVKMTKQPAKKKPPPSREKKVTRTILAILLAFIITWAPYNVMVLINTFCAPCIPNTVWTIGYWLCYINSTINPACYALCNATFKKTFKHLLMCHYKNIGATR
Chain of vasoactive intestinal peptide (VIP1) (P32241 31-457): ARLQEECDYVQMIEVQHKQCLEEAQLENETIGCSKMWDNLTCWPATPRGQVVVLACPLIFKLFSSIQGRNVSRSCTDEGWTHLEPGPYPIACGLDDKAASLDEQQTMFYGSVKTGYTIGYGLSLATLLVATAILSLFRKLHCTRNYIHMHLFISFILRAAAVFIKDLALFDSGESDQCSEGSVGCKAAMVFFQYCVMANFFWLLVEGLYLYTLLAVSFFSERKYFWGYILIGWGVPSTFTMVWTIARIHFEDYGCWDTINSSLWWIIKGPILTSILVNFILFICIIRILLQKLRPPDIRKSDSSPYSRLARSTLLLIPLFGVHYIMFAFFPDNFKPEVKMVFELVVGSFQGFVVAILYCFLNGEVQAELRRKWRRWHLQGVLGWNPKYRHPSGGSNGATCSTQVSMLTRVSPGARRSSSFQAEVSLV
Chain of Adrenergic α1A (P35348 whole entry): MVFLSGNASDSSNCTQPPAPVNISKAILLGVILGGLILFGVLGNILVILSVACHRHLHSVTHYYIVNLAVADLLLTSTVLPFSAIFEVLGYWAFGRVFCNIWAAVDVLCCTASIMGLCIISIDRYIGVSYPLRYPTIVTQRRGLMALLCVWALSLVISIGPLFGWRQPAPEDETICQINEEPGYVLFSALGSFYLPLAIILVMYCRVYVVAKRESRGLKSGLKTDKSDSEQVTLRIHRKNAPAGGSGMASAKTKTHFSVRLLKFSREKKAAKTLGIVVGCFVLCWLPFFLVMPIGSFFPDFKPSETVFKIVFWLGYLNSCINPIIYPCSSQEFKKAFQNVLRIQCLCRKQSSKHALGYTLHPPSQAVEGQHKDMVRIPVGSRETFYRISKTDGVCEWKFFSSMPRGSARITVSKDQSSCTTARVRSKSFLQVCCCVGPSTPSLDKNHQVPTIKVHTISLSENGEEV

Row | Structure (SMILES) | pKi [1] | binding activity [2] | binding activity [3] | binding activity [5] | binding activity [6] | binding activity [8] | binding activity [9] | binding activity [12] | binding activity [14] | binding activity [15] | binding activity [16] | binding activity [18] | binding activity [19] | binding activity [20] | binding activity [21] | binding activity [22] | binding activity [25] | effect on the activity of nitric oxide synthetase [26] | pKi [27] | pKi [29] | other results
1 | Oc1ccc2c(c1O)-c1cccc3c1C(C2)NCC3 (stereo not shown) [Norapomorphine, norapomorphine] | 5.45 | did not bind significantly | did not bind significantly | did not bind significantly | did not bind significantly | did not bind significantly | did not bind significantly | did not bind significantly | did not bind significantly | did not bind significantly | did not bind significantly | did not bind significantly | did not bind significantly | did not bind significantly | did not bind significantly | did not bind significantly | did not bind significantly | neither apomorphine nor its metabolite norapomorphine demonstrated any significant effect | 5.38 | 5.78 | pKi [4]: 5.96; pKi [7]: 6.36; pKi ([10]; Serotonin 5-HT7, read-out: Ki): 5.86; Ki [11]: N/S (N/S = no significant activity (≧50% at 10 μM)); pKi [13]: 6.67; pKi ([17]; Adrenergic α2A, read-out: Ki): 5.84; pKi [23]: 6.93; binding activity [24]: did not bind significantly; pKi [28]: 5.68; binding activity [30]: did not bind significantly; binding activity [31]: did not bind significantly; binding activity [32]: did not bind significantly; pKi ([33]; Serotonin 5-HT2A, read-out: Ki): 5.95; binding activity [34]: did not bind significantly; binding activity [35]: did not bind significantly
2 | CN1CCc2cccc3c2[C@H]1Cc1ccc(O)c(O)c1-3 [Apomorphine, (R)-5,6,6a,7-tetrahydro-6-methyl-4H-dibenzo-[de,g]quinoline-10,11-diol] | 6.69 | No significant binding activity | No significant binding activity | No significant binding activity | No significant binding activity | No significant binding activity | No significant binding activity | No significant binding activity | No significant binding activity | No significant binding activity | No significant binding activity | No significant binding activity | No significant binding activity | No significant binding activity | No significant binding activity | No significant binding activity | No significant binding activity | neither apomorphine nor its metabolite norapomorphine demonstrated any significant effect | 6.46 | 6.69 | binding activity [36]: No significant binding activity; pKi [10]: 7.19; pKi ([11]; read-out: Ki): 6.95; pKi [17]: 7.15; pKi [37]: 6.05; pKi [38]: 7.72; binding activity [39]: No significant binding activity; binding activity [28]: No significant binding activity; binding activity [30]: No significant binding activity; pKi [40]: 6.54; binding activity [31]: No significant binding activity; binding activity [32]: No significant binding activity; pKi [33]: 7.57; binding activity [34]: No significant binding activity; binding activity [35]: No significant binding activity
